Calls of active or inactive are those of the source. The rule behind the calls is not given here.
Assays:
Staphylococcus aureus [1] = assay: Potentiation of geneticin-induced antibacterial activity against Staphylococcus aureus ATCC 33592 assessed as minimum modulatory concentration up to 32 uM measured after 16 hrs in presence of MIC/4 geneticin; type: functional; details: ATCC 33592, 16 h, read-out: MEC
Pseudomonas aeruginosa [2] = assay: Potentiation of geneticin-induced antibacterial activity against Pseudomonas aeruginosa ATCC BAA-2108 assessed as minimum modulatory concentration up to 32 uM measured after 16 hrs in presence of MIC/4 geneticin; type: functional; details: ATCC BAA-2108, 16 h, read-out: MEC
Macrophage cell line [3] = assay: Cytotoxicity against human PBMC-differentiated macrophages treated for 24 hrs followed by compound washout and measured after 48 hrs by MTT assay; type: cell-based
Klebsiella pneumoniae [4] = assay: Potentiation of tetracycline-induced antibacterial activity against Klebsiella pneumoniae ATCC 13883 assessed as minimum modulatory concentration up to 32 uM measured after 16 hrs in presence of MIC/4 tetracycline; type: functional; details: ATCC 13883, 16 h, read-out: MEC
Pseudomonas aeruginosa [5] = assay: Potentiation of tetracycline-induced antibacterial activity against Pseudomonas aeruginosa ATCC BAA-2108 assessed as minimum modulatory concentration up to 32 uM measured after 16 hrs in presence of MIC/4 tetracycline; type: functional; details: ATCC BAA-2108, 16 h, read-out: MEC
Klebsiella pneumoniae [6] = assay: Potentiation of geneticin-induced antibacterial activity against Klebsiella pneumoniae ATCC 13883 assessed as minimum modulatory concentration up to 32 uM measured after 16 hrs in presence of MIC/4 geneticin; type: functional; details: ATCC 13883, 16 h, read-out: MEC
Macrophage cell line [7] = assay: Induction of prostaglandin production in human PBMC-differentiated macrophages after 24 hrs by ELISA; type: cell-based
Staphylococcus aureus [8] = assay: Potentiation of tetracycline-induced antibacterial activity against Staphylococcus aureus ATCC 33592 assessed as minimum modulatory concentration up to 32 uM measured after 16 hrs in presence of MIC/4 tetracycline; type: functional; details: ATCC 33592, 16 h, read-out: MEC
Streptococcus pyogenes [9] = assay: Potentiation of methicillin-induced antibacterial activity against Streptococcus pyogenes ATCC 14289 assessed as minimum modulatory concentration up to 32 uM measured after 16 hrs in presence of MIC/4 methicillin; type: functional; details: ATCC 14289, 16 h, read-out: MEC
Streptococcus pyogenes [10] = assay: Toxicity in Streptococcus pyogenes ATCC 14289 up to 32 uM measured after 16 hrs; type: organism-based
Streptococcus pyogenes [11] = assay: Potentiation of geneticin-induced antibacterial activity against Streptococcus pyogenes ATCC 14289 assessed as minimum modulatory concentration up to 32 uM measured after 16 hrs in presence of MIC/4 geneticin; type: functional; details: ATCC 14289, 16 h, read-out: MEC
Klebsiella pneumoniae [12] = assay: Potentiation of methicillin-induced antibacterial activity against Klebsiella pneumoniae ATCC 13883 assessed as minimum modulatory concentration up to 32 uM measured after 16 hrs in presence of MIC/4 methicillin; type: functional; details: ATCC 13883, 16 h, read-out: MEC
Streptococcus pyogenes [13] = assay: Potentiation of tetracycline-induced antibacterial activity against Streptococcus pyogenes ATCC 14289 assessed as minimum modulatory concentration up to 32 uM measured after 16 hrs in presence of MIC/4 tetracycline; type: functional; details: ATCC 14289, 16 h, read-out: MEC
Escherichia coli [14] = assay: Potentiation of geneticin-induced antibacterial activity against Escherichia coli ATCC 43894 assessed as minimum modulatory concentration up to 32 uM measured after 16 hrs in presence of MIC/4 geneticin; type: functional; details: ATCC 43894, 16 h, read-out: MEC
Klebsiella pneumoniae [15] = assay: Potentiation of erythromycin-induced antibacterial activity against Klebsiella pneumoniae ATCC 13883 assessed as minimum modulatory concentration up to 32 uM measured after 16 hrs in presence of MIC/4 erythromycin; type: functional; details: ATCC 13883, 16 h, read-out: MEC
Klebsiella pneumoniae [16] = assay: Potentiation of ciprofloxacin-induced antibacterial activity against Klebsiella pneumoniae ATCC 13883 assessed as minimum modulatory concentration up to 32 uM measured after 16 hrs in presence of MIC/4 ciprofloxacin; type: functional; details: ATCC 13883, 16 h, read-out: MEC
Macrophage cell line [17] = assay: Induction of TNFalpha production in human PBMC-differentiated macrophages after 24 hrs by ELISA; type: cell-based
Macrophage cell line [18] = assay: Antiinflammatory activity in human PBMC-differentiated macrophages assessed as inhibition of LPS-induced prostaglandin production at 0.01 to 10 uM measured after 24 hrs by ELISA; type: functional, cell-based
Pseudomonas aeruginosa [19] = assay: Toxicity in Pseudomonas aeruginosa ATCC BAA-2108 up to 32 uM measured after 16 hrs; type: organism-based; details: in vitro
Pseudomonas aeruginosa [20] = assay: Potentiation of erythromycin-induced antibacterial activity against Pseudomonas aeruginosa ATCC BAA-2108 assessed as minimum modulatory concentration up to 32 uM measured after 16 hrs in presence of MIC/4 erythromycin; type: functional; details: ATCC BAA-2108, 16 h, read-out: MEC
Macrophage cell line [21] = assay: Antiinflammatory activity in human PBMC-differentiated macrophages assessed as inhibition of LPS-induced IL-8 production at 0.01 to 10 uM measured after 24 hrs by ELISA; type: functional, cell-based
Streptococcus pyogenes [22] = assay: Potentiation of ciprofloxacin-induced antibacterial activity against Streptococcus pyogenes ATCC 14289 assessed as minimum modulatory concentration up to 32 uM measured after 16 hrs in presence of MIC/4 ciprofloxacin; type: functional; details: ATCC 14289, 16 h, read-out: MEC
Escherichia coli [23] = assay: Toxicity in Escherichia coli ATCC 43894 up to 32 uM measured after 16 hrs; type: organism-based
Pseudomonas aeruginosa [24] = assay: Potentiation of methicillin-induced antibacterial activity against Pseudomonas aeruginosa ATCC BAA-2108 assessed as minimum modulatory concentration up to 32 uM measured after 16 hrs in presence of MIC/4 methicillin; type: functional; details: ATCC BAA-2108, 16 h, read-out: MEC
Escherichia coli [25] = assay: Potentiation of methicillin-induced antibacterial activity against Escherichia coli ATCC 43894 assessed as minimum modulatory concentration up to 32 uM measured after 16 hrs in presence of MIC/4 methicillin; type: functional; details: ATCC 43894, 16 h, read-out: MEC
Enterococcus faecium [26] = assay: Potentiation of methicillin-induced antibacterial activity against Enterococcus faecium ATCC 700221 assessed as minimum modulatory concentration up to 32 uM measured after 16 hrs in presence of MIC/4 methicillin; type: functional; details: ATCC 700221, 16 h, read-out: MEC
Enterococcus faecium [27] = assay: Potentiation of erythromycin-induced antibacterial activity against Enterococcus faecium ATCC 700221 assessed as minimum modulatory concentration up to 32 uM measured after 16 hrs in presence of MIC/4 erythromycin; type: functional; details: ATCC 700221, 16 h, read-out: MEC
Staphylococcus aureus [28] = assay: Potentiation of methicillin-induced antibacterial activity against Staphylococcus aureus ATCC 33592 assessed as minimum modulatory concentration up to 32 uM measured after 16 hrs in presence of MIC/4 methicillin; type: functional; details: ATCC 33592, 16 h, read-out: MEC
Pseudomonas aeruginosa [29] = assay: Potentiation of ciprofloxacin-induced antibacterial activity against Pseudomonas aeruginosa ATCC BAA-2108 assessed as minimum modulatory concentration up to 32 uM measured after 16 hrs in presence of MIC/4 ciprofloxacin; type: functional; details: ATCC BAA-2108, 16 h, read-out: MEC
Klebsiella pneumoniae [30] = assay: Toxicity in Klebsiella pneumoniae ATCC 13883 up to 32 uM measured after 16 hrs; type: organism-based
Staphylococcus aureus [31] = assay: Potentiation of ciprofloxacin-induced antibacterial activity against Staphylococcus aureus ATCC 33592 assessed as minimum modulatory concentration up to 32 uM measured after 16 hrs in presence of MIC/4 ciprofloxacin; type: functional; details: ATCC 33592, 16 h, read-out: MEC
Enterococcus faecium [32] = assay: Potentiation of tetracycline-induced antibacterial activity against Enterococcus faecium ATCC 700221 assessed as minimum modulatory concentration up to 32 uM measured after 16 hrs in presence of MIC/4 tetracycline; type: functional; details: ATCC 700221, 16 h, read-out: MEC
Escherichia coli [33] = assay: Potentiation of tetracycline-induced antibacterial activity against Escherichia coli ATCC 43894 assessed as minimum modulatory concentration up to 32 uM measured after 16 hrs in presence of MIC/4 tetracycline; type: functional; details: ATCC 43894, 16 h, read-out: MEC

Compound	minimal effective concentration (Staphylococcus aureus [1])	minimal effective concentration (Pseudomonas aeruginosa [2])	IC50 (Macrophage cell line [3])	minimal effective concentration (Klebsiella pneumoniae [4])	minimal effective concentration (Pseudomonas aeruginosa [5])	minimal effective concentration (Klebsiella pneumoniae [6])	Activity (Macrophage cell line [7])	minimal effective concentration (Staphylococcus aureus [8])	minimal effective concentration (Streptococcus pyogenes [9])	Activity (Streptococcus pyogenes [10])	minimal effective concentration (Streptococcus pyogenes [11])	minimal effective concentration (Klebsiella pneumoniae [12])	minimal effective concentration (Streptococcus pyogenes [13])	minimal effective concentration (Escherichia coli [14])	minimal effective concentration (Klebsiella pneumoniae [15])	minimal effective concentration (Klebsiella pneumoniae [16])	Activity (Macrophage cell line [17])	inhibition (Macrophage cell line [18])	Activity (Pseudomonas aeruginosa [19])	minimal effective concentration (Pseudomonas aeruginosa [20])	other results
O=C(O)c1ccnc(Cc2ccccc2)c1O	> 32 µM	> 32 µM	> 100 µM	> 32 µM	> 32 µM	> 32 µM	Non-Toxic	> 32 µM	> 32 µM	Non-Toxic	> 32 µM	> 32 µM	> 32 µM	> 32 µM	> 32 µM	> 32 µM	Non-Toxic	inactive	Non-Toxic	> 32 µM	inhibition (Macrophage cell line [21]): inactive; minimal effective concentration (Streptococcus pyogenes [22]): > 32 µM; Activity (Escherichia coli [23]): Non-Toxic; minimal effective concentration (Pseudomonas aeruginosa [24]): > 32 µM; minimal effective concentration (Escherichia coli [25]): > 32 µM; minimal effective concentration (Enterococcus faecium [26]): > 32 µM; minimal effective concentration (Enterococcus faecium [27]): > 32 µM; minimal effective concentration (Staphylococcus aureus [28]): > 32 µM; minimal effective concentration (Pseudomonas aeruginosa [29]): > 32 µM; Activity (Klebsiella pneumoniae [30]): Non-Toxic; minimal effective concentration (Staphylococcus aureus [31]): > 32 µM; minimal effective concentration (Enterococcus faecium [32]): > 32 µM; minimal effective concentration (Escherichia coli [33]): > 32 µM
Cc1nc(-c2ccccc2)cc(C(=O)O)c1O	16 µM	> 32 µM	90.8 µM	> 32 µM	> 32 µM	> 32 µM	Non-Toxic	16 µM	> 32 µM	Non-Toxic	> 32 µM	> 32 µM	> 32 µM	> 32 µM	> 32 µM	> 32 µM	Non-Toxic	inactive	Non-Toxic	> 32 µM	inhibition (Macrophage cell line [21]): inactive; minimal effective concentration (Streptococcus pyogenes [22]): > 32 µM; Activity (Escherichia coli [23]): Non-Toxic; minimal effective concentration (Pseudomonas aeruginosa [24]): > 32 µM; minimal effective concentration (Escherichia coli [25]): > 32 µM; minimal effective concentration (Enterococcus faecium [26]): > 32 µM; minimal effective concentration (Enterococcus faecium [27]): > 32 µM; minimal effective concentration (Staphylococcus aureus [28]): 16 µM; minimal effective concentration (Pseudomonas aeruginosa [29]): > 32 µM; Activity (Klebsiella pneumoniae [30]): Non-Toxic; minimal effective concentration (Staphylococcus aureus [31]): > 32 µM; minimal effective concentration (Enterococcus faecium [32]): > 32 µM; minimal effective concentration (Escherichia coli [33]): > 32 µM

From ChEMBL document CHEMBL4257522, “Synthesis and preliminary anti-inflammatory and anti-bacterial evaluation of some diflunisal aza-analogs” (Medchemcomm, 2018)
